Experimental data taken from patent publication US10702543B2, “Intranuclear protein transduction through a nucleoside salvage pathway” (The United States Government as represented by The …, priority 2007, dated 2020).

Tests used:
ENT4 = molecular target: T1, ENT4 (Homo sapiens, UniProt Q7RTT9); settings: cited from earlier work
T1 sequence (Q7RTT9 1-530): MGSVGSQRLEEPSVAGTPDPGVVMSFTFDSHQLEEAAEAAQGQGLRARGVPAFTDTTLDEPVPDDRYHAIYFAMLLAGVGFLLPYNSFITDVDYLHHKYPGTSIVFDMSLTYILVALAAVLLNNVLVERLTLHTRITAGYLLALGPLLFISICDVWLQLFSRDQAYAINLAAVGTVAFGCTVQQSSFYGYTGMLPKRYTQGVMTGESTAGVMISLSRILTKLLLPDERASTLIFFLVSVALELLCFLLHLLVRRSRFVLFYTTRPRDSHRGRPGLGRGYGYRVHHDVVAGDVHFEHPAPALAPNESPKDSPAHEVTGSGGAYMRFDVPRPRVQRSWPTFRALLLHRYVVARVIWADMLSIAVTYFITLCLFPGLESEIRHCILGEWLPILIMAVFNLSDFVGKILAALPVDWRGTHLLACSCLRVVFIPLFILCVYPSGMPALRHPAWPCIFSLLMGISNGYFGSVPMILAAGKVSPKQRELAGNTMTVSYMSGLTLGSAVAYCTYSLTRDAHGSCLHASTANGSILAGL

ENT2 [1] = molecular target: T2, ENT2 (Homo sapiens, UniProt Q14542); assay: Inhibition of ENT2 by NBMPR (Ward et al.); type: biochemical
T2 sequence (Q14542 1-456): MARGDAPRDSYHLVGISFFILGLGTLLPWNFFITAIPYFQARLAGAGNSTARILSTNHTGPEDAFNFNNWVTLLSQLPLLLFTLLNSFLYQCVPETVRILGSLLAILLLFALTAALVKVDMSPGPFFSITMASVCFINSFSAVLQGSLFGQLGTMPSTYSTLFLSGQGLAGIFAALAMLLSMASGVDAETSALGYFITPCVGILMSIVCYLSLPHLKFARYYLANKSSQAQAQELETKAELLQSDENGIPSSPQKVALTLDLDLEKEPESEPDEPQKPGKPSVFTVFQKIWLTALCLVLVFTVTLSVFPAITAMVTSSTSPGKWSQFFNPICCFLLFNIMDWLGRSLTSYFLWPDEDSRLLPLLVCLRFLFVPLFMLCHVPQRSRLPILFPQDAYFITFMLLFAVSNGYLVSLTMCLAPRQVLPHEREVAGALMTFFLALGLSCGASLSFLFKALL

ENT2 [2] = molecular target: T2, ENT2; settings: read-out: Ki of NBMPR for ENT2; Ward et al., J. Biol. Chem. 2000; cited from earlier work
[3] = system: ENT subtype equilibrative, insensitive (ei); settings: low concentrations (e.g., <1 μM) of NBMPR; cited from earlier work
cells in tissue culture = settings: cited from earlier work

Row | ENT2 activity (ENT2 [1]; at 10 μM NBMPR) | expected suppression of ENT2 activity (ENT2 [1]; by 10 μM NBMPR) | Compound | inhibition of ENT4 by NBMPR (ENT4) | Ki (ENT2 [2]) | effect of NBMPR on the ei subtype [3] | harm to cells that it penetrates (cells in tissue culture)
1 | retains moderate activity | > 50% | O=[N+]([O-])c1ccc(CSc2ncnc3c2ncn3C2OC(CO)C(O)C2O)cc1 (stereo not drawn) [NBMPR, Nitrobenzylmercaptopurine riboside] | weakly inhibited | 2.8 µM | unaffected | –
2 | – | – | mAb 3E10: monoclonal anti-DNA antibody produced by hybridoma 3E10, ATCC accession number PTA-2439 | – | – | – | no harm
